Results: BindingDB's records for doi:10.1016/j.bmcl.2010.04.113 (Merck Serono, 2010)

Assay: Antagonist activity at human CXCR3 expressed in mouse L1.2 cells assessed as inhibition of IP10-induced chemotaxis after 4 hrs

In order of rising IC50:
1. O=C(NCc1cccc(Cl)c1)c1ccc(CN(Cc2ccccn2)S(=O)(=O)c2ccc(Cl)cc2)cc1 [4-((4-chloro-N-(pyridin-2-ylmethyl)phenylsulfonamido)methyl)-N-(3-chlorobenzyl)benzamide]  85 nM
2. CC(C)(C)c1nc(CCN(Cc2ccc(-c3nnn[nH]3)cc2)S(=O)(=O)c2ccc(Cl)cc2)no1 [N-(4-(1H-tetrazol-5-yl)benzyl)-N-(2-(5-tert-butyl-1,2,4-oxadiazol-3-yl)ethyl)-4-chlorobenzenesulfonamide]  254 nM
3. COc1ccc(S(=O)(=O)N(Cc2ccccc2)Cc2ccc(C(=O)NCc3ccccc3)cc2)cc1 [N-benzyl-4-((N-benzyl-4-methoxyphenylsulfonamido)methyl)benzamide]  347 nM
4. O=S(=O)(c1ccc(Cl)cc1)N(Cc1ccc(-c2nnn[nH]2)c(F)c1)Cc1ccccn1 [4-chloro-N-(3-fluoro-4-(1H-tetrazol-5-yl)benzyl)-N-(pyridin-2-ylmethyl)benzenesulfonamide]  440 nM
5. CCOc1ccc(S(=O)(=O)N(Cc2ccc(-c3nnn[nH]3)cc2)Cc2ccccn2)cc1 [N-(4-(1H-tetrazol-5-yl)benzyl)-4-ethoxy-N-(pyridin-2-ylmethyl)benzenesulfonamide]  540 nM
6. CCOc1ccc(S(=O)(=O)N(Cc2ccccc2)Cc2ccc(C(=O)NCC3CC3)cc2)cc1 [4-((N-benzyl-4-ethoxyphenylsulfonamido)methyl)-N-(cyclopropylmethyl)benzamide]  673 nM
7. COc1ccc(S(=O)(=O)N(Cc2ccccc2)Cc2ccc(C(=O)NCC3CC3)cc2)cc1 [4-((N-benzyl-4-methoxyphenylsulfonamido)methyl)-N-(cyclopropylmethyl)benzamide]  697 nM
8. O=S(=O)(c1ccc(Cl)cc1)N(CCc1cc2ccccc2cn1)Cc1ccc(-c2nnn[nH]2)cc1 [N-(4-(1H-tetrazol-5-yl)benzyl)-4-chloro-N-(2-(isoquinolin-3-yl)ethyl)benzenesulfonamide]  911 nM
9. O=C(NCC1CC1)c1ccc(CN(Cc2cccc(Cl)c2)S(=O)(=O)c2ccc(Cl)cc2)cc1 [4-((4-chloro-N-(3-chlorobenzyl)phenylsulfonamido)methyl)-N-(cyclopropylmethyl)benzamide]  940 nM
10. N#Cc1ccc(S(=O)(=O)N(Cc2ccc(C(=O)O)c(F)c2)Cc2ccccn2)cc1 [4-((4-cyano-N-(pyridin-2-ylmethyl)phenylsulfonamido)methyl)-2-fluorobenzoicacid]  1080 nM
11. COc1ccc(S(=O)(=O)N(Cc2ccc(C(=O)NCC3CC3)cc2)Cc2cccnc2)cc1 [N-(cyclopropylmethyl)-4-((4-methoxy-N-(pyridin-3-ylmethyl)phenylsulfonamido)methyl)benzamide]  1150 nM
12. O=C(NCC1CC1)c1ccc(CN(Cc2ccccc2)S(=O)(=O)c2ccc(Cl)cc2)cc1 [4-((N-benzyl-4-chlorophenylsulfonamido)methyl)-N-(cyclopropylmethyl)benzamide]  1980 nM
13. O=C(O)c1ccc(CN(Cc2ccccc2)S(=O)(=O)c2ccc(Cl)cc2)cc1 [4-((N-benzyl-4-chlorophenylsulfonamido)methyl)benzoicacid]  2940 nM
14. O=C(NCC1CC1)c1ccc(CN(Cc2ccccc2)S(=O)(=O)c2ccc(OC(F)(F)F)cc2)cc1 [4-((N-benzyl-4-(trifluoromethoxy)phenylsulfonamido)methyl)-N-(cyclopropylmethyl)benzamide]  5580 nM
15. COc1ccc(S(=O)(=O)N(Cc2ccccc2)Cc2ccc(C(=O)O)cc2)cc1 [4-((N-benzyl-4-methoxyphenylsulfonamido)methyl)benzoicacid]  6440 nM
